Measurements published in PubChem BioAssay (NCI).
Several values for one entry are separate records, joined by “and”; a condition that tells them apart may be missing. Identical values can stand only once.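 48-hour exposure; five concentrations; linearly interpolated endpoints. Here, GI50 denotes the concentration required for 50% inhibition of growth. TGI is the concentration that stops growth completely.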

Assays:
Assay in all cases: NCI tumour cell line growth inhibition, 48 h
[1] = system: 786-0 renal
[2] = system: A498 renal
[3] = system: A549 NSCLC
[4] = system: ACHN renal
[5] = system: BT-549 breast
[6] = system: CAKI-1 renal
[7] = system: CCRF-CEM leukemia
[8] = system: COLO 205 colon
[9] = system: DU-145 prostate
[10] = system: EKVX NSCLC
[11] = system: HCC-2998 colon
[12] = system: HCT-116 colon
[13] = system: HCT-15 colon
[14] = system: HL-60(TB) leukemia
[15] = system: HOP-62 NSCLC
[16] = system: HOP-92 NSCLC
[17] = system: HS 578T breast
[18] = system: HT29 colon
[19] = system: IGROV1 ovarian
[20] = system: K-562 leukemia
[21] = system: KM12 colon
[22] = system: LOX IMVI melanoma
[23] = system: M14 melanoma
[24] = system: MALME-3M melanoma
[25] = system: MCF7 breast
[26] = system: MDA-MB-231 breast
[27] = system: MDA-MB-435
[28] = system: MOLT-4 leukemia
[29] = system: NCI-H226 lung
[30] = system: NCI-H23 lung
[31] = system: NCI-H460 lung
[32] = system: NCI-H522 lung
[33] = system: NCI/ADR-RES ovarian
[34] = system: OVCAR-3 ovarian
[35] = system: OVCAR-4 ovarian
[36] = system: OVCAR-5 ovarian
[37] = system: OVCAR-8 ovarian
[38] = system: PC-3 prostate
[39] = system: RPMI-8226 leukemia
[40] = system: RXF 393 renal
[41] = system: SF-268 CNS
[42] = system: SF-295 CNS
[43] = system: SF-539 CNS
[44] = system: SK-MEL-2 melanoma
[45] = system: SK-MEL-28 melanoma
[46] = system: SK-MEL-5 melanoma
[47] = system: SK-OV-3 ovarian
[48] = system: SN12C renal
[49] = system: SNB-19 CNS
[50] = system: SNB-75 CNS
[51] = system: SR leukemia
[52] = system: SW-620 colon
[53] = system: T-47D breast
[54] = system: TK-10 renal
[55] = system: U251 CNS
[56] = system: UACC-257 melanoma
[57] = system: UACC-62 melanoma
[58] = system: UO-31 renal

C[C@@H]1C[C@H]2C(=O)OCC(NC(=O)[C@H](Cc3cc(F)cc(F)c3)NC(=O)Nc3ccc(Cl)cc3F)C(=O)N3CCC[C@H]3C(=O)N3CCCC[C@H]3C(=O)N[C@@H](C)C(=O)N2C1 (some centres undefined)
GI50 [1]: 3.06 µM and 1.18 µM
TGI [1]: 50 µM and 55.5 µM
GI50 [2]: 2.47 µM
TGI [2]: 28.5 µM and 19.2 µM
GI50 [3]: 1.96 µM and 0.916 µM
TGI [3]: 50 µM and > 100 µM
GI50 [4]: 2.22 µM and 1.14 µM
TGI [4]: 50 µM and > 100 µM
GI50 [5]: 1.91 µM and 0.499 µM
TGI [5]: 8.74 µM and 6.72 µM
GI50 [6]: 1.9 µM and 0.4 µM
TGI [6]: 50 µM and 15.6 µM
GI50 [7]: 2.18 µM and 0.51 µM
TGI [7]: 47.2 µM and 19 µM
GI50 [8]: 1.27 µM and 0.402 µM
TGI [8]: 3.64 µM and 1.39 µM
GI50 [9]: 2.1 µM and 0.511 µM
TGI [9]: 50 µM and > 100 µM
GI50 [10]: 2.16 µM and 0.643 µM
TGI [10]: 50 µM and 97.1 µM
GI50 [11]: 2.74 µM and 0.619 µM
TGI [11]: 11.2 µM and 4.46 µM
GI50 [12]: 1.96 µM and 0.355 µM
TGI [12]: 7.37 µM and 2.04 µM
GI50 [13]: 1.96 µM and 0.468 µM
TGI [13]: 37.3 µM and 10.4 µM
GI50 [14]: 1.73 µM and 0.287 µM
TGI [14]: 8.21 µM and 1.53 µM
GI50 [15]: 2.03 µM and 1.07 µM
TGI [15]: 50 µM and 35.8 µM
GI50 [16]: 1.41 µM and 0.399 µM
TGI [16]: 8.43 µM and 7.29 µM
GI50 [17]: 1.74 µM and 0.603 µM
TGI [17]: 50 µM and 18.6 µM
GI50 [18]: 1.91 µM and 0.595 µM
TGI [18]: 8.68 µM and 3.37 µM
GI50 [19]: 4.56 µM and 1.6 µM
TGI [19]: 50 µM and 81.6 µM
GI50 [20]: 0.399 µM
TGI [20]: > 100 µM
GI50 [21]: 3.33 µM and 2.5 µM
TGI [21]: 27.1 µM and 19.7 µM
GI50 [22]: 0.898 µM and 0.776 µM
GI50 [23]: 2.05 µM and 0.448 µM
TGI [23]: 9.05 µM and 10.3 µM
GI50 [24]: 3.1 µM and 1.64 µM
TGI [24]: 16.7 µM and 16.3 µM
GI50 [25]: 1.89 µM and 0.39 µM
TGI [25]: 50 µM and 20 µM
GI50 [26]: 1.65 µM and 0.484 µM
TGI [26]: 5.9 µM and 4.24 µM
GI50 [27]: 2.25 µM and 0.495 µM
TGI [27]: 13.2 µM and 12.3 µM
GI50 [28]: 0.437 µM and 0.793 µM
TGI [28]: 5.12 µM and 17.9 µM
GI50 [29]: 2.08 µM and 0.312 µM
GI50 [30]: 2.79 µM
TGI [30]: 50 µM
GI50 [31]: 1.88 µM and 0.516 µM
TGI [31]: 50 µM and 17.3 µM
GI50 [32]: 1.44 µM and 0.38 µM
TGI [32]: 8.78 µM and 5.8 µM
GI50 [33]: 7.72 µM and 2.87 µM
TGI [33]: 50 µM and > 100 µM
GI50 [34]: 2.23 µM and 0.55 µM
TGI [34]: 50 µM and 11.4 µM
GI50 [35]: 1.66 µM and 0.482 µM
TGI [35]: 50 µM and > 100 µM
GI50 [36]: 2.34 µM and 0.751 µM
TGI [36]: 10.9 µM and 16.5 µM
GI50 [37]: 1.79 µM and 0.408 µM
TGI [37]: 50 µM and > 100 µM
GI50 [38]: 1.7 µM and 0.373 µM
TGI [38]: 29.4 µM and 19 µM
GI50 [39]: 1.19 µM and 0.333 µM
TGI [39]: 7.42 µM and 1.72 µM
GI50 [40]: 2.89 µM and 1.69 µM
TGI [40]: 13.4 µM and 11.5 µM
GI50 [41]: 3.15 µM and 0.645 µM
TGI [41]: 50 µM and 51.9 µM
GI50 [42]: 1.87 µM and 0.411 µM
TGI [42]: 11.8 µM and 7.71 µM
GI50 [43]: 2.63 µM and 1.27 µM
TGI [43]: 10.5 µM and 15.4 µM
GI50 [44]: 1.81 µM and 0.337 µM
TGI [44]: 8.07 µM and 3.28 µM
GI50 [45]: 3.04 µM and 1.37 µM
TGI [45]: 12.5 µM and 16.4 µM
GI50 [46]: 1.82 µM and 0.566 µM
TGI [46]: 7.37 µM and 4.56 µM
GI50 [47]: 2.14 µM and 1.51 µM
TGI [47]: 35.6 µM and 17.1 µM
GI50 [48]: 1.68 µM and 0.444 µM
TGI [48]: 50 µM and 82.4 µM
GI50 [49]: 2 µM and 0.46 µM
TGI [49]: 50 µM and > 100 µM
GI50 [50]: 2.29 µM and 0.365 µM
TGI [50]: 50 µM and 16.9 µM
GI50 [51]: 0.964 µM and 1.37 µM
TGI [51]: 6.9 µM and 14.4 µM
GI50 [52]: 3.37 µM and 0.801 µM
TGI [52]: 50 µM and > 100 µM
GI50 [53]: 1.73 µM and 0.549 µM
TGI [53]: 50 µM and 30.7 µM
GI50 [54]: 3.04 µM and 1.49 µM
TGI [54]: 50 µM and 33.8 µM
GI50 [55]: 2.2 µM and 0.514 µM
TGI [55]: 50 µM and 28.8 µM
GI50 [56]: 1.45 µM and 0.449 µM
TGI [56]: 6.43 µM and 7.05 µM
GI50 [57]: 2.3 µM and 0.644 µM
TGI [57]: 12.4 µM and 14.9 µM
GI50 [58]: 2.12 µM and 2.03 µM
TGI [58]: 50 µM and 65.8 µM
